# Earlier results, collected in patent publication EP0502042B1, “PHARMACEUTICAL COMPOSITIONS” (PHARMACIA S.p.A., priority 1989, dated 1991).
# System: mice
smiles,measurement,value
CN1C(=O)C(O)N=C(c2ccccc2)c2cc(Cl)ccc21 (stereo not shown) [Temazepam],oral LD 50,~1000 mg/kg
